Laboratory results from patent US20220347175A1, “PYRIDAZINONE DERIVATIVE” (Sumitomo Dainippon Pharma Co., Ltd., priority 2018, published 2022).

Experiments:
human Nav1.5 = molecular target: T1, human Nav1.5 (Homo sapiens, UniProt Q14524); test: Amplification of Nav1.5-derived voltage-dependent sodium current (Nav1.5 current), cell line stably expressing human Nav1.5, automated patch clamp; format: cell-based; settings: for activation at 10 µM / activation at 3 µM / activation at 1 µM: read-out: Nav1.5 current amplification rate (%); for activation at 1 µM: compound 1 μmol/L
T1 construct: expressed in transfected cells; host or cells: CHO-K1 (T-REx System, ThermoFisher Scientific)

human Nav1.1 = molecular target: T2, human Nav1.1 (Homo sapiens, UniProt P35498); test: Amplification of Nav1.1-derived voltage-dependent sodium current (Nav1.1 current), cell line stably expressing human Nav1.1, automated patch clamp; format: cell-based; settings: for activation at 10 µM / activation at 3 µM / activation at 1 µM: read-out: Nav1.1 current amplification rate (%); for activation at 1 µM: compound 1 μmol/L
T2 construct: host or cells: HEK293
Procedure, shortened: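 Amplification rate (%) is 100 × post-compound/pre-compound Nav1.1 peak current or AUC, minus 100. Ramp-evoked sodium currents were recorded by automated patch clamp in a human Nav1.1 HEK293 stable line, restricted to cells exceeding 500 pA, with compounds added in extracellular solution containing 1% DMSO.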

[1] = 10 μmol/L compound, change of the area under the curve of Nav1.5 current (Test Result 1)
[2] = 10 μmol/L compound, change of the area under the curve of Nav1.1 current (Test Result 1)
[3] = compound 3 μmol/L, CHO-K1 stably expressing human Nav1.5
[4] = compound 3 μmol/L, HEK293 stably expressing human Nav1.1
[5] = CHO-K1 stably expressing human Nav1.5
[6] = HEK293 stably expressing human Nav1.1

T1 sequence (Q14524 1-2015 isoform Q14524-2): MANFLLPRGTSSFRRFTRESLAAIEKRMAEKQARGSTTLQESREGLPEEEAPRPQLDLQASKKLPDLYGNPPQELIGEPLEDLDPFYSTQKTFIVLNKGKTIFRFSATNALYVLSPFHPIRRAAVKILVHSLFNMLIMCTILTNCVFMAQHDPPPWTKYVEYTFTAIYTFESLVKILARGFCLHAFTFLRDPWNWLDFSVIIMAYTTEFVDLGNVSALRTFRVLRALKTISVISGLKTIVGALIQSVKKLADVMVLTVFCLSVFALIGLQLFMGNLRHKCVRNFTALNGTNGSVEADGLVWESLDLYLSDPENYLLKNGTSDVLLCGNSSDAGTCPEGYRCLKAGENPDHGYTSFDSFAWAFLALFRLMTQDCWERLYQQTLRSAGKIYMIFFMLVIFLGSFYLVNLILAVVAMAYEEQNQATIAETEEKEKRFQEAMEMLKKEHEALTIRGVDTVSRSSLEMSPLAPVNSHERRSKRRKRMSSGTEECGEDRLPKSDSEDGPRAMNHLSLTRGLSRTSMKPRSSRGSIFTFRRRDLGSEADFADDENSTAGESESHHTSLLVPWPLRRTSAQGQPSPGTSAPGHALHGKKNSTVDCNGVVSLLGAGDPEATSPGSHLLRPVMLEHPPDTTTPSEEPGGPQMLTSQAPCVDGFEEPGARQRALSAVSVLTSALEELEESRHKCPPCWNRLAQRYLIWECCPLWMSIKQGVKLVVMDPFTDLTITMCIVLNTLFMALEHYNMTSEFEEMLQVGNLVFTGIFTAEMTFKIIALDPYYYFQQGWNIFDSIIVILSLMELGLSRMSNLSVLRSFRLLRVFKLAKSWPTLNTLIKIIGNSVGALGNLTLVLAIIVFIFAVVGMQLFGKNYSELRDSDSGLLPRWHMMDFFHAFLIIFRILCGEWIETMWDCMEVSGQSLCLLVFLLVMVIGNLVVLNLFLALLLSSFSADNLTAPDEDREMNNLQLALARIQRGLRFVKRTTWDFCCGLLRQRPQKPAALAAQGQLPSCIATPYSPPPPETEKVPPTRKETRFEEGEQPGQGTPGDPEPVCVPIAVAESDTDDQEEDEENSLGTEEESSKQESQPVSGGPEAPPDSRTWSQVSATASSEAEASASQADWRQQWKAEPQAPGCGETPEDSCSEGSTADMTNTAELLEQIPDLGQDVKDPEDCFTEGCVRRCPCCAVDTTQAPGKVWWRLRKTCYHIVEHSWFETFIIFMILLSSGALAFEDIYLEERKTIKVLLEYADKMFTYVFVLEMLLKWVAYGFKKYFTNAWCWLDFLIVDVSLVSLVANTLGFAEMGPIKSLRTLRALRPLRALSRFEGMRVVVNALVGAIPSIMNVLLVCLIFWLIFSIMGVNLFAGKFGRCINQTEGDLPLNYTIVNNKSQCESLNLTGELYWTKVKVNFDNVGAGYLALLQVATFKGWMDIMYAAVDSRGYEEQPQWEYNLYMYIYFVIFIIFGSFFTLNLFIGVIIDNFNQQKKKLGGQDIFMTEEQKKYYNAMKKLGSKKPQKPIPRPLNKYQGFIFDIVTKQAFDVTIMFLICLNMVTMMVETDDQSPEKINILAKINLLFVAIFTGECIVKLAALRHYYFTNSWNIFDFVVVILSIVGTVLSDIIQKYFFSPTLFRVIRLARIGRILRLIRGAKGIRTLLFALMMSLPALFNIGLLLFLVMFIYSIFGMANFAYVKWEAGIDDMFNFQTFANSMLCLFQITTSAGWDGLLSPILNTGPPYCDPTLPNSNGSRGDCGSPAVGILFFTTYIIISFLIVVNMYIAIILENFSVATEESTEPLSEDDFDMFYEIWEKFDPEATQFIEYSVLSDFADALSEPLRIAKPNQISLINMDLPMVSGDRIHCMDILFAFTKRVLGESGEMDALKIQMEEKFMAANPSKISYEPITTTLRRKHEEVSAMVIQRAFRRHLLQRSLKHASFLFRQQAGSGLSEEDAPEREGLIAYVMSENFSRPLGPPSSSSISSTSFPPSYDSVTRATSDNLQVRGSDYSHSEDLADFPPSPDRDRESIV

| activation at 10 µM (human Nav1.1; [2]) | SMILES | activation at 10 µM (human Nav1.5; [1]) | also measured |
| --- | --- | --- | --- |
| 44% | Cc1c(N2CCC(C)(C)CC2)nn(CC(=O)Nc2ccn3ccnc3c2)c(=O)c1C [Example 178] | 1% |  |
| 27% | O=C(Cn1nc(N2CC3(CCCCC3)C2)ccc1=O)Nc1ccn2ccnc2c1 [Example 179] | -1% |  |
| 118% | CC1CCN(c2ccc(=O)n(CC(=O)Nc3ccc4c(c3)NC(=O)CC4)n2)CC1 [Example 181] | 4% |  |
| 32% | COC(=O)c1ccc(NC(=O)Cn2nc(N3CCC(C)CC3)ccc2=O)cn1 [Example 182] | 17% |  |
| 95% | COc1ccc2c(c1)CCN2C(=O)Cn1nc(N2CCC(C)CC2)ccc1=O [Example 183] | 0% |  |
| 35% | O=C(Cn1nc(N2CCC3(CCC3)C2)ccc1=O)N1CCc2cc(N3CCOCC3)ccc21 [Example 184] | 16% |  |
| 22% | O=C(Cn1nc(N2CCC3(CCC3)CC2)ccc1=O)N1CCc2cnccc21 [Example 185] | 2% |  |
| 37% | COc1ccc2c(c1)CCN2C(=O)Cn1nc(N2CCC3(CCC3)C2)ccc1=O [Example 187] | 17% |  |
| 30% | O=C(Cn1nc(N2CCC3(CCC3)C2)ccc1=O)N1CCN(c2ccccc2)CC1 [Example 188] | -2% |  |
| 3% | CC1CCN(c2ccc(=O)n(CC(=O)N3CCc4cc(C(F)(F)F)ccc43)n2)CC1 [Example 189] | -2% |  |
| 100% | O=C(Cn1nc(N2CCC3(CCC3)CC2)ccc1=O)Nc1ccc2c(c1)COC2 [Example 190] | 12% |  |
|  | O=C(Cn1nc(N2CCC3(CCC3)C2)ccc1=O)Nc1ccc2c(c1)OCCO2 [Example 191] |  | activation at 3 µM (human Nav1.5; [3]): 2%; activation at 3 µM (human Nav1.1; [4]): 52% |
| 137% | CC1(C)CCN(c2ccc(=O)n(CC(=O)Nc3ccn4ccnc4c3)n2)CC1 [Example 192] | 2% |  |
| 219% | Cc1cc(N2CCC3(CCCC3)C2)nn(CC(=O)Nc2ccc3ocnc3c2)c1=O [Example 193] | 0% |  |
| 252% | Cc1cc(=O)n(CC(=O)Nc2ccc3ocnc3c2)nc1N1CCC2(CCCC2)C1 [Example 194] | 33% |  |
| 209% | COc1cc(=O)n(CC(=O)Nc2ccc3ocnc3c2)nc1N1CCC2(CCCC2)C1 [Example 195] | 29% |  |
| 225% | CN(C)c1cc(N2CCC3(CCCC3)C2)nn(CC(=O)Nc2ccc3ocnc3c2)c1=O [Example 196] | 18% |  |
| 318% | CN(C)c1cc(=O)n(CC(=O)Nc2ccc3ocnc3c2)nc1N1CCC2(CCCC2)C1 [Example 197] | 56% |  |
| 36% | Cc1cc(NC(=O)Cn2nc(N3CCC4(CCCC4)C3)cc(C)c2=O)cc(C)n1 [Example 198] | -9% |  |
| 36% | Cc1cc(NC(=O)Cn2nc(N3CCC4(CCCC4)C3)c(C)cc2=O)cc(C)n1 [Example 199] | 1% |  |
| 103% | Cc1cc(N2CCC(C)CC2)nn(CC(=O)Nc2ccc3ocnc3c2)c1=O [Example 200] | 5% |  |
| 139% | Cc1cc(=O)n(CC(=O)Nc2ccc3ocnc3c2)nc1N1CCC(C)CC1 [Example 201] | 1% |  |
| 131% | Cc1cc(N2CCC3(CCC3)C2)nn(CC(=O)Nc2ccc3c(c2)OCC3)c1=O [Example 202] | 3% |  |
| 267% | Cc1cc(=O)n(CC(=O)Nc2ccc3c(c2)OCC3)nc1N1CCC2(CCC2)C1 [Example 203] | 12% |  |
| 189% | Cc1cc(N2CCC3(CCC3)C2)nn(CC(=O)Nc2ccc3ocnc3c2)c1=O [Example 204] | 8% |  |
| 235% | Cc1cc(=O)n(CC(=O)Nc2ccc3ocnc3c2)nc1N1CCC2(CCC2)C1 [Example 205] | 20% |  |
| 154% | O=C(Cn1nc(N2CCC3(CCCC3)C2)cc(N2CCCC2)c1=O)Nc1ccc2ocnc2c1 [Example 206] | 33% |  |
| 89% | O=C(Cn1nc(N2CCC3(CCC3)C2)cc(N2CCCC2)c1=O)Nc1ccc2ocnc2c1 [Example 207] | 7% |  |

| activation at 10 µM (human Nav1.1; [2]) | SMILES | activation at 10 µM (human Nav1.5; [1]) | also measured |
| --- | --- | --- | --- |
| 200% | O=C(Cn1nc(N2CCC3(CCC3)C2)c(N2CCCC2)cc1=O)Nc1ccc2ocnc2c1 [Example 208] | 18% |  |
| 179% | Cc1c(N2CCC3(CCC3)C2)nn(CC(=O)Nc2ccn3ccnc3c2)c(=O)c1C [Example 209] | 16% |  |
| 212% | CN(C)c1cc(N2CCC(C)(C)CC2)nn(CC(=O)Nc2ccn3ccnc3c2)c1=O [Example 211] | 8% |  |
| 74% | COc1cc(N2CCC(C)(C)CC2)nn(CC(=O)Nc2ccn3ccnc3c2)c1=O [Example 212] | 3% |  |
| 136% | COc1cc(N2CCC3(CCC3)C2)nn(CC(=O)Nc2ccn3ccnc3c2)c1=O [Example 213] | 5% |  |
| 64% | CC1(C)CN(c2ccc(=O)n(CC(=O)Nc3ccc4ocnc4c3)n2)CCC12CC2(F)F (centres unmarked) [Example 214] | -1% |  |
| 183% | Cc1nc2cc(NC(=O)Cn3nc(N4CCC(C)CC4)ccc3=O)cc(Cl)c2o1 [Example 215] | 18% |  |
| 121% | CC1CCN(c2ccc(=O)n(CC(=O)Nc3cc(F)c4ocnc4c3)n2)CC1 [Example 216] | 3% |  |
| 25% | CC1CCN(c2ccc(=O)n(CC(=O)Nc3ccc(C(=O)N4CCCC4)nc3)n2)CC1 [Example 217] | 1% |  |
|  | CC1CCN(c2ccc(=O)n(CC(=O)N3CCc4c(N5CCOCC5)cccc43)n2)CC1 [Example 218] |  | activation at 1 µM (human Nav1.5; [5]): 9%; activation at 1 µM (human Nav1.1; [6]): 155% |
| 97% | CC1CCN(c2ccc(=O)n(CC(=O)N3CCc4cc(N5CCCC5=O)ccc43)n2)CC1 [Example 219] | 12% |  |
| 50% | CC1CCN(c2ccc(=O)n(CC(=O)N3CCc4cc(N5CCN(C)CC5)ccc43)n2)CC1 [Example 220] | 5% |  |
| 281% | CC1(C)CCN(c2ccc(=O)n(CC(=O)N3CCc4c(N5CCOCC5)cccc43)n2)CC1 [Example 221] | 15% |  |
|  | CN(C)c1cc(N2CCC3(CCC3)C2)nn(CC(=O)N2CCc3c(N4CCOCC4)cccc32)c1=O [Example 222] |  | activation at 1 µM (human Nav1.5; [5]): 11%; activation at 1 µM (human Nav1.1; [6]): 137% |
| 46% | CN1CCN(c2cccc3c2CCN3C(=O)Cn2nc(N3CCC(C)(C)CC3)ccc2=O)CC1 [Example 223] | 0% |  |
| 118% | COc1cc(N2CCC(C)(C)CC2)nn(CC(=O)N2CCc3c(N4CCOCC4)cccc32)c1=O [Example 224] | 11% |  |
| 146% | Cc1cc(N2CCC3(CCC3)C2)nn(CC(=O)N2CCc3c(N4CCN(C)CC4)cccc32)c1=O [Example 225] | 2% |  |
| 319% | Cc1c(N2CCC3(CCC3)C2)nn(CC(=O)N2CCc3c(N4CCOCC4)cccc32)c(=O)c1C [Example 226] | 71% |  |
|  | COc1cc(N2CCC3(CCC3)C2)nn(CC(=O)N2CCc3c(N4CCOCC4)cccc32)c1=O [Example 227] |  | activation at 3 µM (human Nav1.5; [3]): 17%; activation at 3 µM (human Nav1.1; [4]): 303% |
| 37% | Cc1cnc2cc(NC(=O)Cn3nc(N4CCC(C)CC4)ccc3=O)ccn12 [Example 232] | 8% |  |
|  | CC1(C)CCN(c2ccc(=O)n(CC(=O)N3CCc4c(-c5cccnc5)cccc43)n2)CC1 [Example 234] |  | activation at 1 µM (human Nav1.5; [5]): 4%; activation at 1 µM (human Nav1.1; [6]): 240% |
|  | CC1(C)CCN(c2ccc(=O)n(CC(=O)N3CCc4c(-c5ccnnc5)cccc43)n2)CC1 [Example 235] |  | activation at 1 µM (human Nav1.5; [5]): 7%; activation at 1 µM (human Nav1.1; [6]): 198% |
|  | CC1CC=C(c2ccc(=O)n(CC(=O)Nc3ccc4oc(N(C)C)nc4c3)n2)CC1 (centres unmarked) [Example 244, N-[2-(dimethylamino)-1,3-benzooxazol-5-yl]-2-[3-(4-methylcyclohex-1-en)-6-oxopyridazin-1(6H)-yl]acetamide] |  | activation at 3 µM (human Nav1.5; [3]): 21%; activation at 3 µM (human Nav1.1; [4]): 263% |
|  | CC1CC=C(c2ccc(=O)n(CC(=O)N3CC=C(c4cccnc4)CC3)n2)CC1 (centres unmarked) [Example 402] |  | Nav1.5 current amplification rate (%) (human Nav1.5; [1]): 21%; Nav1.1 current amplification rate (%) (human Nav1.1; [2]): 323% |
|  | COc1cncc(C2=CCN(C(=O)Cn3nc(C4=CCC(C)CC4)ccc3=O)CC2)c1 (centres unmarked) [Example 403] |  | Nav1.5 current amplification rate (%) (human Nav1.5; [1]): 12%; Nav1.1 current amplification rate (%) (human Nav1.1; [2]): 270% |
|  | CC1CC=C(c2ccc(=O)n(CC(=O)N3CC=C(c4nccc5occc45)CC3)n2)CC1 (centres unmarked) [Example 404] |  | Nav1.5 current amplification rate (%) (human Nav1.5; [1]): 6%; Nav1.1 current amplification rate (%) (human Nav1.1; [2]): 42% |
|  | CC1CC=C(c2ccc(=O)n(CC(=O)N3CCN(c4cncc(OC(F)F)c4)CC3)n2)CC1 (centres unmarked) [Example 405] |  | Nav1.5 current amplification rate (%) (human Nav1.5; [3]): 14%; Nav1.1 current amplification rate (%) (human Nav1.1; [4]): 268% |
